Laboratory results published in US20210106547A1, “Managing Cardiovascular Conditions Associated with Kidney Disease” (Emory University, priority 2019, published 2021).
Entries after “also recorded” stand apart in the source; their conditions may differ.

What was measured:
[1] = biological target: T1, UT-A1 (Homo sapiens, UniProt Q15849); details: cited from earlier work
T1 sequence (Q15849 1-920): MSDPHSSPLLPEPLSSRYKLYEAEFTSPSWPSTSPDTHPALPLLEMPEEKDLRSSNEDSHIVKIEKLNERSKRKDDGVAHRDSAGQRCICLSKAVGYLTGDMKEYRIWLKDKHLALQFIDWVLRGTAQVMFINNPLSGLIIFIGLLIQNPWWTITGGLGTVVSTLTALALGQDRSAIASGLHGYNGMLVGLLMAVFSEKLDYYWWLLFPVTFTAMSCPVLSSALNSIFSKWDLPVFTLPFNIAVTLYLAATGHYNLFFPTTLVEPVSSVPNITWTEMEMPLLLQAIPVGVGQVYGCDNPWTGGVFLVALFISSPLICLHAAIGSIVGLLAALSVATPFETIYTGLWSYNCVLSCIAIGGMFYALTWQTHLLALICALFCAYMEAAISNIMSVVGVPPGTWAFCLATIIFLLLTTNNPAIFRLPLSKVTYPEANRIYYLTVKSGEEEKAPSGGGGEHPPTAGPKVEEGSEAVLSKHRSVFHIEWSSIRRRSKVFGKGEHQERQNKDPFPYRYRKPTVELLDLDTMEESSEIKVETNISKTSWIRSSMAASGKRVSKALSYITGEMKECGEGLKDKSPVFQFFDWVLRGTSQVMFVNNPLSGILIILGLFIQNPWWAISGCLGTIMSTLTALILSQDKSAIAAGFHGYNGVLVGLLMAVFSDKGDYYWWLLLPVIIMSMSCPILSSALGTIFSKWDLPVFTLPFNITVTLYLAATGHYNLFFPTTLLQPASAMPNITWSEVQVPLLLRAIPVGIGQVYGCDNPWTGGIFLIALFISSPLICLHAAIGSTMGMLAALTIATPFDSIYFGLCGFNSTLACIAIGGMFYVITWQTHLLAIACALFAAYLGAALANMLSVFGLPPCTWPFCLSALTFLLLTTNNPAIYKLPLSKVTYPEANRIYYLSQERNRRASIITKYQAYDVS

[2] = system: C57BL/6 wild type mice; test: Cardiac echocardiographic analysis of mice after 5/6 nephrectomy and DMTU treatment; format: in vivo, mouse; details: for LVEDV: LV end-diastolic volume; for LVESD: LV end-systolic dimension; for LVESV: LV end-systolic volume; for FS: fractional shortening; for IVSd / IVSs: intraventricular septum; for PWd / PWs: posterior wall thickness; for LVMI: ratio of LVM to BW
Description: (§1) Experiment of C57BL/6 wild type mice. Mice underwent 5/6 nephrectomy surgery. Mice were fed 14% protein diet (0 weeks to 2 weeks), 23% protein diet (2 weeks to 6 weeks), and 40% protein diet (6 weeks to 8 weeks). Mice drank 1% NaCl water one week to six weeks after second surgery, and dimethylthiourea (DMTU; UT-A inhibitor) was administered by osmotic mini pump.
(§2) Since an increase in UT-A is associated with an increase in fibrosis proteins in vitro and in vivo, experiments were performed to determine whether inhibition of UT-A could prevent fibrosis in the heart of CKD mice. Mice were randomly divided into four cohorts: sham+vehicle, sham+DMTU, 5/6Nx+vehicle, and 5/6Nx+DMTU. Mini-pumps were used for DMTU administration (100 mg/kgBW/day). The phenotypic characteristics of mice were determined 8 weeks after completing the 5/6Nx (Table 1).
Both intraventricular septum (IVS) and posterior wall thicknesses (PW) were greatest in 5/6Nx+vehicle than all other three groups (Table 2).

[3] = biological target: T2, UT-B (Homo sapiens, UniProt Q13336); details: cited from earlier work
T2 sequence (Q13336 1-389): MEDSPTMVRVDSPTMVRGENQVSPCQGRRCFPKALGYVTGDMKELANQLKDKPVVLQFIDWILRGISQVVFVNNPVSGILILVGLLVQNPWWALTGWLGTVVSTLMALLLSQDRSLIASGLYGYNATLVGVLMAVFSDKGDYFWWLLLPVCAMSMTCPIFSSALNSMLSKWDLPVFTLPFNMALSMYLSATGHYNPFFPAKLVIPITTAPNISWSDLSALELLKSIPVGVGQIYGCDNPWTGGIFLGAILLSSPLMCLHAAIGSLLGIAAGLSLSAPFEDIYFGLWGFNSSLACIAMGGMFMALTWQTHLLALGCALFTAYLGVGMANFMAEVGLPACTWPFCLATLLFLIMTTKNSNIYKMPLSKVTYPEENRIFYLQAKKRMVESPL

[4] = system: C57BL/6 wild type mice; test: Immunohistochemistry staining of heart for collagen type 1 and α-SMA; format: in vivo, mouse; details: 5/6Nx + DMTU compared with 5/6Nx + vehicle
Description: as §1, §2

[5] = system: C57BL/6 wild type mice; test: Blood pressure by tail cuff method at 8 weeks after the second surgery; format: in vivo, mouse
Description: Systolic blood pressure at 8 weeks after the second surgery.
as §1, §2

[6] = system: C57BL/6 wild type mice; test: Quantitative mRNA expression in mouse hearts by real-time PCR; format: in vivo
Description: FIG. 4E show quantitative mRNA expression in mouse hearts performed by real-time PCR. Individual gene expression was calculated by ΔΔcq and standardized by housekeeping gene 18s.
Angiotensin converting enzyme (ACE) gene expression was calculated by ΔΔcq and standardized by housekeeping gene 18s.
as §1
Since an increase in UT-A is associated with an increase in fibrosis proteins in vitro and in vivo, experiments were performed to determine whether inhibition of UT-A could prevent fibrosis in the heart of CKD mice. […] The phenotypic characteristics of mice were determined 8 weeks after completing the 5/6Nx (Table 1).
In uremic cardiomyopathy, increased cardiac fibrosis and hypertrophy are associated with upregulation of the renin-angiotensin system (RAS). To identify whether the ability of UT-A to reduce cardiac fibrosis is related to the RAS, the mRNA expression of angiotensin converting enzyme (ACE) was measured in the heart of 4 groups of mice.

[7] = system: C57BL/6 wild type mice; test: Phenotypic characteristics of sham and 5/6Nx mice 8 weeks after 5/6 nephrectomy, DMTU by osmotic mini pump; format: in vivo, mouse; details: for 24 hr intake volume/BW / 24 hr urine osmolality / 24 hr urine volume/BW / BUN / Plasma osmolality / Urine urea / Volume in-out balance/BW: 8 weeks
Description: as §1, §2

[8] = system: C57BL/6 wild type mice; test: Masson's Trichrome staining of mouse heart tissues, fibrosis area; format: in vivo; details: 5/6Nx + DMTU, 5/6Nx+vehicle 1.04±0.15
Description: Pictures were observed by ×200 magnification. Scale bar is 100 μm. Dark color indicated fibrosis in Masson's staining.
as §1, §2

[9] = system: Rats; details: cited from earlier work
[10] = system: C57BL/6 wild type mice; test: Heart size and heart weight at sacrifice (cardiac hypertrophy); format: in vivo, mouse
Description: White bar is vehicle and black bar is DMTU treatment.
as §1, §2
Inhibition of UT-A suppressed CKD-induced increases in SBP in 5/6Nx mice (5/6Nx+DMTU: 119±3 mmHg vs 5/6Nx+vehicle: 130±2 mmHg, P<0.05) (FIG. 3A). […] DMTU suppressed the CKD-induced increase in heart weight (5/6Nx+DMTU: 3.74±0.12 mg/g vs 5/6Nx+vehicle: 4.50±0.09 mg/g, P<0.001) (FIG. 3D). Since the BW could be altered by either edema (in CKD) or dehydration (by DMTU), dry brain weight was also used to normalize heart weight.

In the case of `CNC(=S)NC` [DMTU, N,N′-dimethylthiourea], the “Inhibition of UT-A1” value [1] is given as “inhibits”, the “CKD-induced increases of LVESD, LVEDV, LVESV and LVMI” value ([2]; 5/6Nx + DMTU) is given as “eliminated these increases” and the LVEDD ([2]; 5/6Nx + DMTU) is given as 3.43 ± 0.06 mm. For the same compound, the LVM ([2]; 5/6Nx + DMTU) was 89 ± 3 mg, the LVEDV ([2]; 5/6Nx + DMTU) was 62.6 ± 0.3 µL and the LVESD ([2]; 5/6Nx + DMTU) was 2.77 ± 0.02 mm. For the same compound, the LVESV ([2]; 5/6Nx + DMTU) was 23.6 ± 0.3 µL, the FS ([2]; 5/6Nx + DMTU) was 30 ± 0.5 % and the IVSd ([2]; 5/6Nx + DMTU) was 0.49 ± 0.01 mm. For the same compound, the IVSs ([2]; 5/6Nx + DMTU) was 1.08 ± 0.00 mm, the PWd ([2]; 5/6Nx + DMTU) was 0.55 ± 0.01 mm and the PWs ([2]; 5/6Nx + DMTU) was 0.52 ± 0.01 mm. The LVMI ([2]; 5/6Nx + DMTU) was 3.44 ± 0.13 mg/g, the “Percentage of fractional shortening (FS), effect” value ([2]; CKD heart) was “restored FS to the normal range” and the Pericardial effusion ([2]; mice of the cohorts other than 5/6Nx+vehicle (incl. sham+DMTU, 5/6Nx+DMTU)) was “none of the mice”. For the same compound, the LVEDD ([2]; sham + DMTU) was 3.80 ± 0.18 mm, the LVM ([2]; sham + DMTU) was 97 ± 7 mg and the LVEDV ([2]; sham + DMTU) was 57.3 ± 1.8 µL. It also gave an LVESD ([2]; sham + DMTU) of 2.45 ± 0.14 mm, an LVESV ([2]; sham + DMTU) of 21.8 ± 1.1 µL and an FS ([2]; sham + DMTU) of 33 ± 0.5%. It also gave an IVSd ([2]; sham + DMTU) of 0.44 ± 0.00 mm, an IVSs ([2]; sham + DMTU) of 1.05 ± 0.00 mm and a PWd ([2]; sham + DMTU) of 0.53 ± 0.00 mm. The PWs ([2]; sham + DMTU) was 0.52 ± 0.03 mm, the LVMI ([2]; sham + DMTU) was 3.73 ± 0.15 mg/g and the “Inhibition of UT-B” value [3] was “inhibits”. For the same compound, the “Collagen type I and α-smooth muscle actin (SMA) proteins in heart” value [4] was “less”, the “SBP (systolic blood pressure)” value ([5]; 5/6Nx + DMTU, 8 weeks, vs 5/6Nx+vehicle 130±2, P<0.05) was 119±3 mmHg and the “Effect on DBP (diastolic blood pressure)” value ([5]; sham or 5/6Nx mice) was “did not affect DBP”. For the same compound, the “mRNA expression of fibrosis related genes (collagen 1A1, collagen 4A1, fibronectin and α-SMA) in heart” value ([6]; 5/6Nx + DMTU compared with 5/6Nx + vehicle) was “less than 5/6Nx+vehicle mice”, the “mRNA expression of angiotensin converting enzyme (ACE) in heart” value ([6]; sham and 5/6Nx groups, DMTU vs vehicle) was “significantly abolished ACE expression; also recorded: suppressed an increase in ACE mRNA expression” and the “Volume in-out balance relative to 5/6Nx+vehicle” value ([7]; 5/6Nx + DMTU) was “the balance was less”. The “24 hr intake volume/BW” value ([7]; 5/6Nx + DMTU) was 0.265 ± 0.028 mL/g, the “24 hr urine osmolality” value ([7]; 5/6Nx + DMTU) was 1206 ± 116 mOsmol/kg H2O and the “24 hr urine volume/BW” value ([7]; 5/6Nx + DMTU) was 0.170 ± 0.013 mL/g. The BUN ([7]; 5/6Nx + DMTU) was 63.7 ± 4.6 mg/dL, the Plasma osmolality ([7]; 5/6Nx + DMTU) was 329 ± 3 mOsmol/kg H2O and the Urine urea ([7]; 5/6Nx + DMTU) was 926 ± 95 mmol/L. The “Volume in-out balance/BW” value ([7]; 5/6Nx + DMTU) was 0.114 ± 0.014 mL/g, the “Increase of urine volume and decrease of urine osmolality” value ([7]; CKD mice) was “absent” and the “BUN values with DMTU treatment vs. vehicle treatment” value ([7]; either sham or CKD mice) was “no significant difference”. For the same compound, the “24 hr intake volume/BW” value ([7]; sham + DMTU) was 0.129 ± 0.006 mL/g, the “24 hr urine osmolality” value ([7]; sham + DMTU) was 2378 ± 133 mOsmol/kg H2O and the “24 hr urine volume/BW” value ([7]; sham + DMTU) was 0.058 ± 0.010 mL/g. For the same compound, the BUN ([7]; sham + DMTU) was 31.3 ± 2.8 mg/dL, the Plasma osmolality ([7]; sham + DMTU) was 322 ± 1 mOsmol/kg H2O and the Urine urea ([7]; sham + DMTU) was 1555 ± 128 mmol/L. The “Volume in-out balance/BW” value ([7]; sham + DMTU) was 0.081 ± 0.010 mL/g, the “Effect on urine osmolality” value ([7]; sham mice) was “decreased urine osmolality” and the “Effect on urine volume” value ([7]; sham mice) was “increased urine volume”. The “Percentage of fibrosis area in heart” value [8] was 0.57±0.07%, the “Diuresis compared with furosemide” value [9] was “greater diuresis” and the “Side effects like hyponatremia or hypokalemia” value [9] was “did not show side effects”. For the same compound, the “Ratio of heart weight to dry brain weight” value ([10]; 5/6Nx + DMTU, vs 5/6Nx+vehicle 1.34±0.09, P<0.01) was 1.04 ± 0.04 mg/mg, the “Ratio of heart weight/body weight (BW)” value ([10]; 5/6Nx + DMTU, vs 5/6Nx+vehicle 4.50±0.09, P<0.001) was 3.74 ± 0.12 mg/g and the “CKD-induced increase in heart size” value ([10]; 5/6Nx mice, at sacrifice) was “suppressed the CKD-induced increase in heart size”.
